Consider 19 compounds from publication PMC539285, “Anti-Plasmodium activity of ceramide analogs” (Malaria Journal, 2004).

Each structure is given as a SMILES string.

Test system in the first series: not listed separately
The series is described as follows: Cytotoxicity test upon human embryonic cells (MTT). Format: cell-based. The following applies: human, MRC-5 human diploid embryonic lung cells; MRC-5, five days, MTT; mean of three experiments. As for the experimental part:
(§1) A human diploid embryonic lung cell line (MRC-5, Bio-Whittaker 72211D) was used to assess the cytotoxic effects towards eukaryotic host cells. MRC-5 cells were seeded at 5,000 cells per well in 100 μl. After 24 hours, the cells were washed and two-fold dilutions of the drug were added in 200 μl standard culture medium (RPMI medium + 5% fetal calf serum) and maintained for five days under 5% CO2 atmosphere. The final DMSO concentration in the culture remained below 0.1%. Untreated cultures were included as controls. The cytotoxicity was determined using the colorimetric MTT assay according to the manufacturer's recommendations (Cell proliferation kit I, Roche Applied Science, France) and scored as a percentage of reduction in absorption at 540 nm of treated cultures versus untreated control cultures. […] The results were expressed as the mean ± the standard deviations determined from several independent experiments. The index of selectivity was defined as the ratio of the IC50 value on MRC-5 to that of P. falciparum.
`CCCCCCCCCCCCCCCCN[C@H](CO)[C@H](O)c1ccc([N+](=O)[O-])cc1` [AD2619] had an IC90 at 5 days of 42.3 µM.

Compound `CCCCCCCCCCCCCCN[C@@H](CO)[C@@H](O)c1ccc([N+](=O)[O-])cc1` [AD2645] yielded an IC90 at 5 days of 10.3 µM.

The compound `CCCCCCCCCCCCCCN[C@H](CO)[C@H](O)c1ccc(N)cc1` [AD2672] showed an IC90 at 5 days of 5.9 µM.

The compound `CCCCCCCCCCCCCCNC(CO)Cc1ccccc1` (stereo not drawn) [AD2729] had an IC90 at 5 days of 9.8 µM.

The compound `CCCCCCCCCCCCCCN[C@H](CO)[C@H](O)c1ccccc1` [AD2730] registered an IC90 at 5 days of 9.9 µM.

A further series has as its system human MRC-5 cells. The series is described as follows: Cytotoxicity test upon human embryonic cells (MTT). It counts as cell-based. The note with it: Homo sapiens, MRC5, 120 h; MRC-5, five days, MTT; mean of three experiments. As for the experimental part: as §1
In the case of `CCCCCCCCCCCCCCCCN[C@H](CO)[C@H](O)c1ccc([N+](=O)[O-])cc1` [AD2619], the IC50 was found to be 26.7 µM.

Compound `CCCCCCCCCCCCCCN[C@@H](CO)[C@@H](O)c1ccc([N+](=O)[O-])cc1` [AD2645] came in with an IC50 of 6.1 µM.

For the compound `CCCCCCCCCCCCCCN[C@H](CO)[C@H](O)c1ccc(N)cc1` [AD2672], the IC50 came to 3.7 µM.

Take `CCCCCCCCCCCCCCNC(CO)Cc1ccccc1` (stereo not drawn) [AD2729]: the IC50 came to 5.8 µM.

As for `CCCCCCCCCCCCCCN[C@H](CO)[C@H](O)c1ccccc1` [AD2730], the IC50 turned out to be 6.1 µM.

The series is the same for the next values; noted with them: ratio of the IC50 value on MRC-5 cells to that on P. falciparum.
Turning to `CCCCCCCCCCCCCCCCN[C@H](CO)[C@H](O)c1ccc([N+](=O)[O-])cc1` [AD2619], the Index of selectivity was determined as 624.

As to `CCCCCCCCCCCCCCN[C@@H](CO)[C@@H](O)c1ccc([N+](=O)[O-])cc1` [AD2645], the Index of selectivity came out at 161.

Consider `CCCCCCCCCCCCCCN[C@H](CO)[C@H](O)c1ccc(N)cc1` [AD2672], for which the Index of selectivity is on record as 2.

With `CCCCCCCCCCCCCCNC(CO)Cc1ccccc1` (stereo not drawn) [AD2729], the Index of selectivity is listed as 22.

For the compound `CCCCCCCCCCCCCCN[C@H](CO)[C@H](O)c1ccccc1` [AD2730], the Index of selectivity was determined as 322.

In the next series the test system is chloroquine-resistant strain FcB1 of P. falciparum. The series is described as follows: Anti-Plasmodium activity, [3H]hypoxanthine microdilution on asynchronous cultures. Format: cell-based, Plasmodium falciparum. The note with it: AD2729 compared with AD2730. The method, then: P. falciparum strains (FcB1/Colombia, K1/Thailand, F32/Tanzania, W2/Indochina) were maintained in continuous culture on human erythrocytes in RPMI medium containing 7% (v/v) heat-inactivated human serum under an atmosphere of 3% CO2, 6% O2, 91% N2, at 37°C, as described by Trager and Jensen. Parasite synchronization was performed successively by treatment with 5% (w/v) sorbitol and by concentration in gelatin solution as previously described.
Drug susceptibility assays were performed using a modification of the semi automated microdilution technique of Desjardins et al.. Stock solutions of test compounds were prepared in DMSO. Drug solutions were serially diluted twofold with 100 μl culture medium in 96-well plates. Asynchronous parasite cultures (100 μl, 1 % parasitemia and 1 % final hematocrite) were added to each well and incubated for 24 hours at 37°C prior to the addition of 0.5 μCi of [^3H] hypoxanthine (Amersham, France, 1 to 5 Ci.mmol/ml) per well. After a further incubation of 24 hour, plates were frozen and thawed. Cell lysates were then collected onto glass-filter papers and counted in a liquid scintillation spectrometer. The growth inhibition for each drug concentration was determined by comparison of the radioactivity incorporated in the treated culture with that in the control culture (having the same final % of DMSO) maintained on the same plate. The concentration causing 50% growth inhibition (IC50) and 90% growth (IC90) were obtained from the drug concentration-response curve and the results were expressed as the means ± the standard deviations determined from several independent experiments.
In the case of `CCCCCCCCCCCCCCNC(CO)Cc1ccccc1` (stereo not drawn) [AD2729], the “reduction of anti-Plasmodium activity by removal of the carbon 3 hydroxyl group” value was 13.5 times.

Still in this series, the particulars now being: Plasmodium falciparum, 48 h; Figure 2, series A (amide linkage); strain FcB1; 90% growth inhibition; read-out: CI90 (the source's name).
On to `CCCCCCCC(=O)N[C@H](CO)[C@H](O)c1ccc([N+](=O)[O-])cc1` [AD2494], for which the IC90 worked out at 70 µM.

On to `CCCCCCCCCCCCCCCC(=O)N[C@H](CO)[C@H](O)c1ccc([N+](=O)[O-])cc1` [AD2495], for which the IC90 stood at 20.3 ± 1.4 µM.

With `CCCCCCCC(=O)N[C@@H](CO)[C@@H](O)c1ccc([N+](=O)[O-])cc1` [AD2550], the IC90 is over 100 µM.

On to `CCCCCCCCCCCC(=O)N[C@H](CO)[C@H](O)c1ccc([N+](=O)[O-])cc1` [AD2552], for which the IC90 was 36.3 ± 16.1 µM.

In the case of `CCCCCCCCCCCCCC(=O)N[C@H](CO)[C@H](O)c1ccc([N+](=O)[O-])cc1` [AD2557], the IC90 was found to be 37.8 ± 15.3 µM.

For `CCCCCCCCCCCCCCCCCC(=O)N[C@H](CO)[C@H](O)c1ccc([N+](=O)[O-])cc1` [AD2558], the IC90 is over 50 µM.

With `CCCCCCCCCCCCCC(=O)N[C@@H](CO)[C@@H](O)c1ccc([N+](=O)[O-])cc1` [AD2560], the IC90 was 36 ± 18.2 µM.

In the case of `CCCC(=O)N[C@H](CO)[C@H](O)c1ccc([N+](=O)[O-])cc1` [AD2583], the IC90 worked out at 67.4 µM.

`CCCCCCCC(=O)Nc1ccc([C@@H](O)[C@@H](CO)NC(=O)CCC)cc1` [AD2603]: the IC90 was over 100 µM.

Take `CCCCCCCCCCCC(=O)Nc1ccc([C@@H](O)[C@@H](CO)NC(=O)CCC)cc1` [AD2604]: the IC90 was over 100 µM.

With `CCCCCCCCCCCCCCCC(=O)N[C@H](CO)[C@H](O)c1ccc(N)cc1` [AD2623], the IC90 worked out at 81.3 µM.

For `CCCCCCCCCCCC(=O)Nc1ccc([C@@H](O)[C@H](N)CO)cc1` [AD2648], the IC90 amounted to 9.6 µM.

Staying with this series, now noted: Plasmodium falciparum, 48 h; Figure 3, series B; strain FcB1; 90% growth inhibition; read-out: CI90 (the source's name).
As to `CCCCCCCCCCCCCCCCN[C@H](CO)[C@H](O)c1ccc([N+](=O)[O-])cc1` [AD2619], the IC90 was found to be 0.073 ± 0.005 µM.

As for `CCCCCCCCCCCCCCN[C@@H](CO)[C@@H](O)c1ccc([N+](=O)[O-])cc1` [AD2645], the IC90 was 0.104 ± 0.001 µM.

For the compound `CCCCCCNc1ccc([C@@H](O)[C@@H](CO)NCCCCCC)cc1` [AD2651], the IC90 was 0.135 ± 0.019 µM.

Take `CCCCCCCCNc1ccc([C@@H](O)[C@@H](CO)NCCCCCCCC)cc1` [AD2670]: the IC90 was found to be 0.069 ± 0.003 µM.

Consider `CCCCCCCCCCCCCCN[C@H](CO)[C@H](O)c1ccc(N)cc1` [AD2672], for which the IC90 is 2.6 ± 0.65 µM.

The same series, now with this note: Plasmodium falciparum, FCB1; Figure 4, selected derivatives; read-out: IC50.
As to `CCCCCCCCCCCCCCNC(CO)Cc1ccccc1` (stereo not drawn) [AD2729], the IC50 was 0.258 ± 0.0107 µM.

With `CCCCCCCCCCCCCCN[C@H](CO)[C@H](O)c1ccccc1` [AD2730], the IC50 turned out to be 0.0189 ± 0.0017 µM.

The series is the same for the next values; noted with them: Plasmodium falciparum; Figure 2, series A (amide linkage); strain FcB1; read-out: CI50 (the source's name).
On to `CCCCCCCC(=O)N[C@H](CO)[C@H](O)c1ccc([N+](=O)[O-])cc1` [AD2494], for which the IC50 is 13.1 µM.

Consider `CCCCCCCCCCCCCCCC(=O)N[C@H](CO)[C@H](O)c1ccc([N+](=O)[O-])cc1` [AD2495], for which the IC50 amounted to 10.8 ± 2.3 µM.

Consider `CCCCCCCC(=O)N[C@@H](CO)[C@@H](O)c1ccc([N+](=O)[O-])cc1` [AD2550], for which the IC50 amounted to 64.1 µM.

As to `CCCCCCCCCCCC(=O)N[C@H](CO)[C@H](O)c1ccc([N+](=O)[O-])cc1` [AD2552], the IC50 turned out to be 16.5 ± 6.5 µM.

As to `CCCCCCCCCCCCCC(=O)N[C@H](CO)[C@H](O)c1ccc([N+](=O)[O-])cc1` [AD2557], the IC50 turned out to be 17.2 ± 5.5 µM.

Take `CCCCCCCCCCCCCCCCCC(=O)N[C@H](CO)[C@H](O)c1ccc([N+](=O)[O-])cc1` [AD2558]: the IC50 stood at 34.3 µM.

For the compound `CCCCCCCCCCCCCC(=O)N[C@@H](CO)[C@@H](O)c1ccc([N+](=O)[O-])cc1` [AD2560], the IC50 stood at 18.7 ± 6.5 µM.

Regarding `CCCC(=O)N[C@H](CO)[C@H](O)c1ccc([N+](=O)[O-])cc1` [AD2583], the IC50 amounted to 26.8 µM.

Take `CCCCCCCC(=O)Nc1ccc([C@@H](O)[C@@H](CO)NC(=O)CCC)cc1` [AD2603]: the IC50 worked out at 70.1 µM.

Take `CCCCCCCCCCCC(=O)Nc1ccc([C@@H](O)[C@@H](CO)NC(=O)CCC)cc1` [AD2604]: the IC50 worked out at 70 µM.

In the case of `CCCCCCCCCCCCCCCC(=O)N[C@H](CO)[C@H](O)c1ccc(N)cc1` [AD2623], the IC50 amounted to 40.4 µM.

Consider `CCCCCCCCCCCC(=O)Nc1ccc([C@@H](O)[C@H](N)CO)cc1` [AD2648], for which the IC50 turned out to be 4.9 µM.

The series is the same for the next values; noted with them: Plasmodium falciparum; Figure 3, series B (methylene or thiourea linkage); strain FcB1; read-out: CI50 (the source's name).
`CCCCCCCCCCCCCCCCN[C@H](CO)[C@H](O)c1ccc([N+](=O)[O-])cc1` [AD2619]: the IC50 was 0.0428 ± 0.0085 µM.

`CCCCCCCCCCCCCCN[C@@H](CO)[C@@H](O)c1ccc([N+](=O)[O-])cc1` [AD2645]: the IC50 worked out at 0.0379 ± 0.0021 µM.

For `CCCCCCNc1ccc([C@@H](O)[C@@H](CO)NCCCCCC)cc1` [AD2651], the IC50 stood at 0.0857 ± 0.0232 µM.

As to `CCCCCCCCNc1ccc([C@@H](O)[C@@H](CO)NCCCCCCCC)cc1` [AD2670], the IC50 is 0.0337 ± 0.0037 µM.

`CCCCCCCCCCCCCCN[C@H](CO)[C@H](O)c1ccc(N)cc1` [AD2672]: the IC50 turned out to be 1.7 ± 0.2 µM.

The next series has as its system P. falciparum synchronized cultures. The series is described as follows: Parasite stage-specific inhibitory effects and reversibility (Giemsa-stained smears). Format: cell-based, Plasmodium falciparum. The following applies: trophozoite stage, 250 nM (data not shown). The method, then:
Synchronized cultures (1–2% parasitemia) at the ring stage (0–10 hours old parasites), the trophozoite stage (25–35 hours old parasites) and the schizonte stage (40–48 hours old parasites) were maintained in the presence of drug concentrations in the vicinity of IC50 values. Aliquots were removed at the indicated times, washed three times with culture medium and maintained in culture in the absence or in the presence of a given drug. […] Parasitaemias were determined by counting 3,000 cells for each sample. Controls consisted of parasites incubated with DMSO instead of drugs processed in the same way.
To investigate the cytostatic or cytotoxic effects of AD2646 on the parasite development, cultures at the ring stage (0–10 hours), the trophozoite stage (25–35 hours) and the schizonte stage (40–48 hours) were incubated with 30, 100 or 250 nM of AD2646 for 24.5 hours for the ring stage, for 11 hours for the trophozoite stage, and for 14 hours for the schizonte stage. Aliquots were then taken, washed and incubated in the absence or the presence of drug for a further 13 hours to 24 hours depending upon the parasite stage tested (see Figure 5). Parasitaemia and parasite stages were determined on Giemsa-stained smears at time of aliquot removal and after the subsequent incubation.
`CCCCCCNc1ccc([C@@H](O)[C@@H](CO)NCCCCCC)cc1` [AD2651]: the “parasite development, trophozoite stage” value is given as “complete inhibition of parasite development”.

For `CCCCCCCCNc1ccc([C@@H](O)[C@@H](CO)NCCCCCCCC)cc1` [AD2670], the “parasite development, trophozoite stage” value is “complete inhibition of parasite development”.
